Reference: the NIST ThermoML archive (doi:10.1021/je050116g)

Columns and labels:
[1] = xn = mol fraction of the nth substance listed; conditions: 298.15 K, 101.33 kPa, Liquid
[2] = relative permittivity at various frequencies (dimensionless); xn = mol fraction of the nth substance listed; conditions: 298.15 K, 101.33 kPa, Liquid, Frequency=0.03 MHz, Parallel plate capacitor
[3] = 298.15 K; 101.33 kPa; Liquid

CCCCCCCCCCCC [dodecane] + CO
Conditions | mass density [kg/m3] | relative permittivity
[1], x2 = 0.00135 | 745.406 | –
[1], x2 = 0.00185 | 745.4 | –
[1], x2 = 0.00406 | 745.379 | –
[1], x2 = 0.00925 | 745.332 | –
[1], x2 = 0.01113 | 745.324 | –
[1], x2 = 0.01828 | 745.284 | –
[1], x2 = 0.02969 | 745.265 | –
[1], x2 = 0.0464 | 745.259 | –
[1], x2 = 0.0642 | 745.271 | –
[1], x2 = 0.08321 | 745.289 | –
[1], x2 = 0.09518 | 745.306 | –
[2], x2 = 0.000771 | – | 2.00822
[2], x2 = 0.001621 | – | 2.00927
[2], x2 = 0.00274 | – | 2.01066
[2], x2 = 0.003489 | – | 2.01159
[2], x2 = 0.004562 | – | 2.01293
[2], x2 = 0.005874 | – | 2.01448
[2], x2 = 0.008056 | – | 2.01694
[2], x2 = 0.01061 | – | 2.01951
[2], x2 = 0.0131 | – | 2.02187
[2], x2 = 0.01491 | – | 2.0235
[2], x2 = 0.01897 | – | 2.02697
[2], x2 = 0.02456 | – | 2.03155
[2], x2 = 0.03063 | – | 2.03644
[2], x2 = 0.03798 | – | 2.04263
[2], x2 = 0.04663 | – | 2.05023
[2], x2 = 0.05524 | – | 2.05834
[2], x2 = 0.06621 | – | 2.06954
[2], x2 = 0.08007 | – | 2.08561

CCO [ethanol]
Conditions | mass density [kg/m3]
[3] | 785.055

CCCCCCCO [heptan-1-ol]
Conditions | mass density [kg/m3]
[3] | 818.746

CCCCCCCO [heptan-1-ol] + CCCCCCCCCCCC
Conditions | mass density [kg/m3] | relative permittivity
[1], x1 = 0.00183 | 745.491 | –
[1], x1 = 0.00384 | 745.55 | –
[1], x1 = 0.00719 | 745.657 | –
[1], x1 = 0.01509 | 745.934 | –
[1], x1 = 0.02602 | 746.357 | –
[1], x1 = 0.03537 | 746.74 | –
[1], x1 = 0.04943 | 747.341 | –
[1], x1 = 0.06486 | 748.019 | –
[1], x1 = 0.08181 | 748.778 | –
[1], x1 = 0.1023 | 749.709 | –
[2], x1 = 0.000586 | – | 2.00786
[2], x1 = 0.001199 | – | 2.00865
[2], x1 = 0.001873 | – | 2.00953
[2], x1 = 0.002621 | – | 2.01049
[2], x1 = 0.003507 | – | 2.01164
[2], x1 = 0.004712 | – | 2.01319
[2], x1 = 0.006033 | – | 2.01489
[2], x1 = 0.007493 | – | 2.0167
[2], x1 = 0.009131 | – | 2.01867
[2], x1 = 0.01103 | – | 2.02082
[2], x1 = 0.01345 | – | 2.02338
[2], x1 = 0.01639 | – | 2.02628
[2], x1 = 0.02108 | – | 2.03055
[2], x1 = 0.02571 | – | 2.03449
[2], x1 = 0.03171 | – | 2.03943
[2], x1 = 0.0379 | – | 2.0444
[2], x1 = 0.04415 | – | 2.0494
[2], x1 = 0.0517 | – | 2.05543
[2], x1 = 0.06004 | – | 2.06219
[2], x1 = 0.07079 | – | 2.07111
[2], x1 = 0.08135 | – | 2.08016
[2], x1 = 0.09339 | – | 2.09089
[2], x1 = 0.1085 | – | 2.10505

CCCCCCO [hexan-1-ol]
Conditions | mass density [kg/m3]
[3] | 815.275

CCCCCCO [hexan-1-ol] + CCCCCCCCCCCC
Conditions | mass density [kg/m3] | relative permittivity
[1], x1 = 0.00175 | 745.477 | –
[1], x1 = 0.0046 | 745.539 | –
[1], x1 = 0.00826 | 745.625 | –
[1], x1 = 0.01788 | 745.888 | –
[1], x1 = 0.02646 | 746.157 | –
[1], x1 = 0.03537 | 746.455 | –
[1], x1 = 0.04959 | 746.947 | –
[1], x1 = 0.0656 | 747.525 | –
[1], x1 = 0.07934 | 748.03 | –
[1], x1 = 0.09708 | 748.704 | –
[2], x1 = 0.000504 | – | 2.00799
[2], x1 = 0.001087 | – | 2.00873
[2], x1 = 0.001795 | – | 2.00963
[2], x1 = 0.002783 | – | 2.01089
[2], x1 = 0.004043 | – | 2.0125
[2], x1 = 0.005459 | – | 2.0143
[2], x1 = 0.006744 | – | 2.0159
[2], x1 = 0.008507 | – | 2.01802
[2], x1 = 0.01046 | – | 2.02024
[2], x1 = 0.01278 | – | 2.02269
[2], x1 = 0.01656 | – | 2.02639
[2], x1 = 0.02 | – | 2.02952
[2], x1 = 0.02535 | – | 2.03412
[2], x1 = 0.03116 | – | 2.03887
[2], x1 = 0.03741 | – | 2.04388
[2], x1 = 0.04472 | – | 2.0497
[2], x1 = 0.05324 | – | 2.05652
[2], x1 = 0.06176 | – | 2.06346
[2], x1 = 0.07197 | – | 2.072
[2], x1 = 0.08324 | – | 2.08177
[2], x1 = 0.0941 | – | 2.09164
[2], x1 = 0.1052 | – | 2.10222

CO [methanol]
Conditions | mass density [kg/m3]
[3] | 786.538

CCCCCCCCCO [nonan-1-ol]
Conditions | mass density [kg/m3]
[3] | 824.263

CCCCCCCCCO [nonan-1-ol] + CCCCCCCCCCCC
[1]
Conditions | mass density [kg/m3]
x1 = 0.00099 | 745.467
x1 = 0.0047 | 745.637
x1 = 0.00777 | 745.786
x1 = 0.01456 | 746.133
x1 = 0.02651 | 746.79
x1 = 0.03533 | 747.291
x1 = 0.05117 | 748.212
x1 = 0.06465 | 749.011
x1 = 0.08043 | 749.97
x1 = 0.09832 | 751.064

CCCCCCCCO [octan-1-ol]
Conditions | mass density [kg/m3]
[3] | 821.694

CCCCCCCCO [octan-1-ol] + CCCCCCCCCCCC
Conditions | mass density [kg/m3] | relative permittivity
[1], x1 = 0.00204 | 745.513 | –
[1], x1 = 0.00419 | 745.594 | –
[1], x1 = 0.00734 | 745.718 | –
[1], x1 = 0.01454 | 746.026 | –
[1], x1 = 0.02591 | 746.56 | –
[1], x1 = 0.03144 | 746.83 | –
[1], x1 = 0.04912 | 747.72 | –
[1], x1 = 0.06408 | 748.489 | –
[1], x1 = 0.08146 | 749.394 | –
[1], x1 = 0.1014 | 750.468 | –
[2], x1 = 0.000468 | – | 2.00782
[2], x1 = 0.000994 | – | 2.0085
[2], x1 = 0.00174 | – | 2.00946
[2], x1 = 0.002707 | – | 2.0107
[2], x1 = 0.003781 | – | 2.01209
[2], x1 = 0.005049 | – | 2.01375
[2], x1 = 0.006519 | – | 2.01566
[2], x1 = 0.008207 | – | 2.01774
[2], x1 = 0.009844 | – | 2.01966
[2], x1 = 0.01266 | – | 2.02275
[2], x1 = 0.01671 | – | 2.02679
[2], x1 = 0.02183 | – | 2.03146
[2], x1 = 0.02777 | – | 2.03652
[2], x1 = 0.03323 | – | 2.04101
[2], x1 = 0.0398 | – | 2.04628
[2], x1 = 0.04865 | – | 2.05338
[2], x1 = 0.05937 | – | 2.06205
[2], x1 = 0.06843 | – | 2.06953
[2], x1 = 0.0778 | – | 2.07741
[2], x1 = 0.08823 | – | 2.08648
[2], x1 = 0.09795 | – | 2.0952
[2], x1 = 0.111 | – | 2.10743

CCCCCO [pentan-1-ol]
Conditions | mass density [kg/m3]
[3] | 810.883

CCCO [propan-1-ol]
Conditions | mass density [kg/m3]
[3] | 799.564
